The target of data set [1] is T1, Tyrosine-protein kinase ABL1 (Homo sapiens, UniProt P00519). Nature of the data set: Activation of full length human 6His-tagged c-Abl expressed in baculovirus expression system using abltide as substrate after 2 hrs by IMAP assay. The conditions noted are these: for EC50 for c-Abl activation: read-out: pIC50 (converted).
For data set [2], the target named is Tyrosine-protein kinase ABL1 (Homo sapiens, UniProt P00519, D382N). Nature of the data set: Displacement of Myr-GQQPGKVLGDQRRPSL(K-TAMRA)G-amide from N-terminal-truncated human c-ABL D382N mutant (46 to 534 residues) after 30 mins by fluorescence polarization binding assay. In general terms: In fluorescence polarisation assays a small probe gives low polarisation when free and higher when bound to something large.

Data set [3] deals with T1, Tyrosine-protein kinase ABL1. Kind of data set: Induction of human c-ABL phosphorylation at Y245/Y412 residues in bacmam-induced HEK-MSR2 cell lysates by in-cell Western blot analysis. It is filed as subcellular, Lysate.
A short description of data set [4]: Kinetic solubility of the compound at pH 7.4 after 1 hr by CLND-based assay. The conditions noted are these: buffer, read-out: Kinetic_solubility. The format is physicochemical.
Data set [5] in a line: Permeability of the compound at […] after 3 hrs by artificial membrane permeability assay. It is filed as ADME. The conditions noted are these: PAMPA; read-out: permeability. For orientation: In PAMPA a lipid-coated filter parts donor from acceptor wells.

The results in this text go back to ChEMBL document CHEMBL4411335, “Identification and Optimization of Novel Small c-Abl Kinase Activators Using Fragment and HTS Methodologies” (J Med Chem, 2019).

In brackets after ≈: the same amount, converted by molar mass.

T1 sequence (P00519 whole entry, the tested form may be a part): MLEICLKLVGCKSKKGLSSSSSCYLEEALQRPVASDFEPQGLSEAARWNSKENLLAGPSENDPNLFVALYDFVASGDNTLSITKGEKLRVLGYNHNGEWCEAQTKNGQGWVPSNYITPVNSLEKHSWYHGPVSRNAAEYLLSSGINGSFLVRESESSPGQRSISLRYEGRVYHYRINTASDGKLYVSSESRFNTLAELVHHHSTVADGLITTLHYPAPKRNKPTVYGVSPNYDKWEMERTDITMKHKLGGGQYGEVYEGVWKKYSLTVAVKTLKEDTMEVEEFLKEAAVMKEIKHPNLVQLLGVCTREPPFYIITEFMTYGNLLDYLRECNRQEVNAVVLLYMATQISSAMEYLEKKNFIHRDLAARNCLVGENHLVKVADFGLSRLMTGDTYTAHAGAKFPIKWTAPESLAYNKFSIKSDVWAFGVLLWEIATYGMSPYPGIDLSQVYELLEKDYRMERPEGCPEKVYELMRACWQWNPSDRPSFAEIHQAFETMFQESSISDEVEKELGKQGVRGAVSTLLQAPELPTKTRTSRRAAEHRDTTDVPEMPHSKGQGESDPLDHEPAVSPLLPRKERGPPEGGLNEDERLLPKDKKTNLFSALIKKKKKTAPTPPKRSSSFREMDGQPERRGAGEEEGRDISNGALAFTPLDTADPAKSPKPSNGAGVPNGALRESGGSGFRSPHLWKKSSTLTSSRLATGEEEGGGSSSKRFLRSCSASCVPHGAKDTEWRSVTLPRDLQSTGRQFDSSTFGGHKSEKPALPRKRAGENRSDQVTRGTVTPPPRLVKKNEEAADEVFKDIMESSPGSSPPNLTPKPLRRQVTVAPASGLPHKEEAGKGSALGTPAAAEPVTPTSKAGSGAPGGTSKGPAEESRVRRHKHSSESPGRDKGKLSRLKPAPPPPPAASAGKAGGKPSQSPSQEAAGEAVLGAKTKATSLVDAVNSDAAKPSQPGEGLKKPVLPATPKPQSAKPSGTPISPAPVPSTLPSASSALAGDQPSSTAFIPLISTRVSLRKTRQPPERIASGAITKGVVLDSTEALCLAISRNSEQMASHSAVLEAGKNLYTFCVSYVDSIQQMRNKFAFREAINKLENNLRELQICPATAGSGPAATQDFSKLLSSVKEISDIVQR
Tyrosine-protein kinase ABL1 (Homo sapiens, UniProt P00519, D382N), sequence (P00519 as listed by the source D382N): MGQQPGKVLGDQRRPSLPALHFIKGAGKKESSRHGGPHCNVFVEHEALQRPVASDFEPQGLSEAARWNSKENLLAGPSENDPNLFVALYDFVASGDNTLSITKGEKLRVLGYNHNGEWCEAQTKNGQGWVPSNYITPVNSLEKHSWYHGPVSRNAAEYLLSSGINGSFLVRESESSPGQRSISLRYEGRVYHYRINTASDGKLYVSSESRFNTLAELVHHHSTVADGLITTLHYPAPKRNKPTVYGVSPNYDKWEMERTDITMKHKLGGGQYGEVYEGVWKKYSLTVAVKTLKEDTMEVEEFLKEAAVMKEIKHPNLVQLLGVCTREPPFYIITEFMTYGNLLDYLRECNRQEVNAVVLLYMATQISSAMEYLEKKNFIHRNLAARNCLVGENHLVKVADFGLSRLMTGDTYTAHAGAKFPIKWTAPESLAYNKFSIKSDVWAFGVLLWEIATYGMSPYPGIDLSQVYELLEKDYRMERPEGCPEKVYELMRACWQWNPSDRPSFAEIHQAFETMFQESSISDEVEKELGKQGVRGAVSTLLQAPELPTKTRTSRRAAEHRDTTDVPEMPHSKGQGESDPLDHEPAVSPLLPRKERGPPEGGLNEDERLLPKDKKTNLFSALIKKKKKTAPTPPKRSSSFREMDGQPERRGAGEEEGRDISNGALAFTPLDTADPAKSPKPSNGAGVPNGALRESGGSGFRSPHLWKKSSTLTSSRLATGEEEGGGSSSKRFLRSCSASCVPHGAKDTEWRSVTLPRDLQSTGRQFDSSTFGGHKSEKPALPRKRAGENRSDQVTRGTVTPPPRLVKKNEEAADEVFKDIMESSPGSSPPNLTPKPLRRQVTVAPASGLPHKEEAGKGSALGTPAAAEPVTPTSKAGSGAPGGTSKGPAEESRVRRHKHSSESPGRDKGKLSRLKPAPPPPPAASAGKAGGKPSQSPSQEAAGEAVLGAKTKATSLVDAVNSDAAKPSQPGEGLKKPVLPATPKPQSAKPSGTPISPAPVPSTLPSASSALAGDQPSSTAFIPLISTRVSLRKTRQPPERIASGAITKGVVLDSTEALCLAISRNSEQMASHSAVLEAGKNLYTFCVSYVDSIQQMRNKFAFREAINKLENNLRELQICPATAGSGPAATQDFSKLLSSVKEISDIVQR

For `CC(=O)NC1=NN(c2ccc(Cl)c(Cl)c2)[C@@H](C)C1`, the EC50 for c-Abl activation in data set [1] is 501 nM. The half-maximal inhibitory concentration (IC50) (as a rule, the concentration that gives 50% inhibition) in data set [2] was 398 nM. For the same compound, the half-maximal effective concentration (EC50) (as a rule, the concentration needed to bring the measured effect to its halfway point) in data set [3] is 10000 nM. The solubility kinetic at 1 h in data set [4] came out at 125 µM (≈ 35.8 µg/mL). Besides, in data set [5], the Papp at 3 h is 42 ×10⁻⁶ cm/s.

`CC(=O)Nc1nc(-c2cc(Cl)c(Cl)s2)cs1`: in data set [1], the EC50 for c-Abl activation was above 100000 nM. Besides, the IC50 in data set [2] is 6310 nM. The half-maximal effective concentration (EC50) in data set [3] is above 50100 nM. Besides, in data set [4], the solubility kinetic at 1 h was 1 µM (≈ 0.293 µg/mL). For the same compound, the Papp at 3 h in data set [5] was 28 ×10⁻⁶ cm/s.

Turning to `CC(=O)Nc1nc(-c2ccc(F)c(Cl)c2)cs1`, the EC50 for c-Abl activation in data set [1] was 39800 nM. The compound also showed an IC50 in data set [2] of 2510 nM. The compound further had a concentration giving a half-maximal response (EC50) in data set [3] above 50100 nM. Further, the solubility kinetic at 1 h in data set [4] was determined as 10 µM (≈ 2.71 µg/mL). Moreover, in data set [5], the Papp at 3 h was found to be 9.4 ×10⁻⁶ cm/s.

`CC(=O)NC1=NN(c2ccc(Cl)c(Cl)c2)CC1C` (racemic) gave a half-maximal inhibitory concentration (IC50) in data set [2] of 794 nM. In addition, the EC50 in data set [3] is 501 nM. In data set [4], the solubility kinetic at 1 h amounted to 49 µM (≈ 14 µg/mL). Further, in data set [5], the Papp at 3 h came to 40.5 ×10⁻⁶ cm/s.

Turning to `O=C1CCCC(C(=O)NC2=NN(c3ccc(Cl)c(Cl)c3)CC2)N1` (centres undefined), the EC50 for c-Abl activation in data set [1] is 398 nM. For the same compound, the IC50 in data set [2] was 501 nM. The compound further showed a 50% effective concentration (EC50) in data set [3] of 2510 nM. For the same compound, the solubility kinetic at 1 h in data set [4] was found to be 416 µM (≈ 148 µg/mL). In addition, in data set [5], the Papp at 3 h turned out to be 25 ×10⁻⁶ cm/s.

On to `N#CCC(=O)Nc1nc(-c2ccc(Cl)c(Cl)c2)ns1`, for which, in data set [1], the EC50 for c-Abl activation is 3160 nM. Besides, the half-maximal inhibitory concentration (IC50) in data set [2] was 1000 nM. The same compound had an EC50 in data set [3] of 10000 nM. Further, the solubility kinetic at 1 h in data set [4] was determined as 370 µM (≈ 116 µg/mL). In addition, the Papp at 3 h in data set [5] came out at 23 ×10⁻⁶ cm/s.

On to `N#CCC(=O)Nc1nc(-c2ccc(Cl)c(Cl)c2)c[nH]1`, for which, in data set [1], the EC50 for c-Abl activation was 1580 nM. Also, the half-inhibitory concentration (IC50) in data set [2] was 631 nM. The same compound showed a half-maximal effective concentration (EC50) in data set [3] of 3160 nM. In data set [4], the solubility kinetic at 1 h worked out at 14 µM (≈ 4.13 µg/mL). Besides, the Papp at 3 h in data set [5] was 31 ×10⁻⁶ cm/s.

Regarding `O=C(NC1=NN(c2ccc(Cl)c(Cl)c2)CC1)c1cccnn1`, the EC50 for c-Abl activation in data set [1] is 5010 nM. Moreover, the IC50 in data set [2] is 794 nM. The same compound showed an EC50 in data set [3] above 50100 nM. In addition, the solubility kinetic at 1 h in data set [4] was found to be 67 µM (≈ 22.5 µg/mL).

For the compound `Cn1cnnc1SCC(=O)Nc1nc(-c2ccc(Cl)c(Cl)c2)cs1`, the concentration giving a half-maximal response (EC50) was 10000 nM in data set [1] and 20000 nM in data set [3]. In addition, the IC50 in data set [2] is 794 nM.

For `CC(=O)NC1=NN(c2ccc(Cl)c(Cl)c2)C[C@@H]1C`, the IC50 in data set [2] is 398 nM. The compound further gave an EC50 in data set [3] of 631 nM. Also, the solubility kinetic at 1 h in data set [4] was 32 µM (≈ 9.16 µg/mL). Further, in data set [5], the Papp at 3 h is 42 ×10⁻⁶ cm/s.

For the compound `NC1=NN(c2ccc(Cl)c(Cl)c2)CC1`, the EC50 for c-Abl activation in data set [1] is 6310 nM. Also, the IC50 in data set [2] was 2000 nM. This compound had an EC50 in data set [3] of 12600 nM. Also, in data set [4], the solubility kinetic at 1 h worked out at 69 µM (≈ 15.9 µg/mL). Besides, in data set [5], the Papp at 3 h was 32 ×10⁻⁶ cm/s.

With `CC(=O)Nc1nc(-c2ccc(Cl)cc2)cs1`, the EC50 for c-Abl activation in data set [1] is 31600 nM. Moreover, the 50% inhibitory concentration (IC50) in data set [2] is 10000 nM. Also, the solubility kinetic at 1 h in data set [4] came to 1 µM (≈ 0.253 µg/mL). In addition, the Papp at 3 h in data set [5] was determined as 25 ×10⁻⁶ cm/s.

For `Cn1ncc([N+](=O)[O-])c1C(=O)Nc1nc(-c2ccc(Cl)c(Cl)c2)cs1`, the EC50 for c-Abl activation in data set [1] was 31.6 nM. Besides, the IC50 in data set [2] is 200 nM. The compound further gave a 50% effective concentration (EC50) in data set [3] of 15800 nM. Besides, in data set [4], the solubility kinetic at 1 h is below 1 µM. Also, the Papp at 3 h in data set [5] came out at 26 ×10⁻⁶ cm/s.

`N#CCC(=O)Nc1cc(-c2ccc(Cl)c(Cl)c2)cs1`: the EC50 for c-Abl activation in data set [1] is 3160 nM. Moreover, the IC50 in data set [2] is 3980 nM. The same compound showed a concentration giving a half-maximal response (EC50) in data set [3] of 20000 nM. The solubility kinetic at 1 h in data set [4] came out at 12 µM (≈ 3.73 µg/mL). The Papp at 3 h in data set [5] was 19 ×10⁻⁶ cm/s.

Take `N#CCC(=O)Nc1csc(-c2ccc(Cl)c(Cl)c2)n1`: the EC50 for c-Abl activation in data set [1] was 1580 nM. The compound also gave an IC50 in data set [2] of 126 nM. In addition, in data set [3], a half-maximal response (EC50) required 15800 nM. In addition, the solubility kinetic at 1 h in data set [4] is 2 µM (≈ 0.624 µg/mL). Moreover, the Papp at 3 h in data set [5] is 35 ×10⁻⁶ cm/s.

As to `CC(=O)Nc1nc(-c2cccc(Cl)c2)cs1`, in data set [1], the EC50 for c-Abl activation was 7940 nM. In addition, in data set [2], the half-inhibitory concentration (IC50) was above 50100 nM. Besides, the solubility kinetic at 1 h in data set [4] came out at 2 µM (≈ 0.505 µg/mL). Moreover, the Papp at 3 h in data set [5] was determined as 34 ×10⁻⁶ cm/s.

On to `O=C(NC1=NN(c2ccc(Cl)c(Cl)c2)CC1)c1c(F)cccc1F`, for which the EC50 for c-Abl activation in data set [1] is 631 nM. For the same compound, in data set [2], the IC50 was 398 nM. For the same compound, the EC50 in data set [3] was 3160 nM.

In the case of `O=C1NC(=O)C(c2cn(-c3ccccc3)nc2-c2ccc(F)cc2)N1` (centres undefined), the concentration for half-maximal inhibition (IC50) in data set [2] was 398 nM. Also, in data set [3], the half-maximal effective concentration (EC50) is 794 nM. Besides, the solubility kinetic at 1 h in data set [4] is above 395 µM. Further, the Papp at 3 h in data set [5] worked out at 35 ×10⁻⁶ cm/s.

For the compound `CC(=O)Nc1nc(-c2cccc(O)c2)cs1`, in data set [1], the EC50 for c-Abl activation was above 50100 nM. The 50% inhibitory concentration (IC50) in data set [2] was 12600 nM. The solubility kinetic at 1 h in data set [4] amounted to 103 µM (≈ 24.1 µg/mL). Besides, the Papp at 3 h in data set [5] stood at 27 ×10⁻⁶ cm/s.
